Experimental data as given in publication PMC7239035 (Chemistry, an Asian journal, 2019).

Target: β2AR (human β2 adrenergic receptor) (Homo sapiens, UniProt P07550)
Assay: radioligand binding
Settings: labelled compound; antagonist; detergent micelles (PPM or DDM, CMC+0.2 wt%); room temperature

Chain of β2AR (human β2 adrenergic receptor) (P07550 whole entry): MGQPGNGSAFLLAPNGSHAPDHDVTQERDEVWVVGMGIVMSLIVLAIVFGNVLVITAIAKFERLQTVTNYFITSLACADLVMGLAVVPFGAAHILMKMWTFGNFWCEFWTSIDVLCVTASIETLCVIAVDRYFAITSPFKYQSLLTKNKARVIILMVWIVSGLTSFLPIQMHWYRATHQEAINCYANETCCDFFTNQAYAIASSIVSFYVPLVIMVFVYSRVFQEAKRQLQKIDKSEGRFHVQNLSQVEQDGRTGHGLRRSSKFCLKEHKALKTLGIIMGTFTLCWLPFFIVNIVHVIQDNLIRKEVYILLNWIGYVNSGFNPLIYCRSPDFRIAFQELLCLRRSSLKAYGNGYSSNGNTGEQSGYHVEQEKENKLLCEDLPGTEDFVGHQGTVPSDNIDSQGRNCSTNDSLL

Question: For `CCCc1ccccc1OCC(O)CNC(C)C` (stereo not shown) [[3H]-dihydroalprenolol], which radioligand binding is on record?
Answer: Its radioligand binding is “receptor ability to bind the radio-labelled antagonist ([^3H]-dihydroalprenolol (DHA))”.
